Experimental data as given in patent US20070071762A1, “COMPREHENSIVE DIAGNOSTIC TESTING PROCEDURES FOR PERSONALIZED ANTICANCER CHEMOTHERAPY (PAC)” (CCC Diagnostics, LLC, priority 2005, published 2007).
≈ marks a conversion by molar mass, not a printed value. Read-outs that look alike come from different tables or passages of the source.

Key:
HCC 38 cells = experiment: WST-8 growth inhibition of cultured breast cancer cells; format: cell-based, human; settings: for IC50: Homo sapiens
Procedure: (§1) In another example, the expression of thymidylate synthase (TS) was correlated with the response of breast cancer cells to the chemotherapeutic drug 5-fluorouracil (5-FU). TS is a key enzyme in DNA biosynthesis and has been postulated to play a major role in predicting the response to 5-FU based chemotherapy. Experiments were conducted to examine this relationship. […] Doses ranged from 5-300 μg/ml.

HCC 2218 cells = experiment: as above; format: cell-based, human; settings: for IC50: Homo sapiens
Procedure: as §1

HCC 202 cells = experiment: as above; format: cell-based, human; settings: for IC50: Homo sapiens
Procedure: as §1

T47D cells = experiment: as above; format: cell-based, human; settings: for IC50: Homo sapiens
Procedure: as §1

MCF-7 cells [1] = experiment: as above; format: cell-based, human; settings: for IC50: Homo sapiens, MCF7, 5-FU, doses ranged from 5-300 μg/ml
Procedure: as §1

SKBR-3 cells [2] = experiment: as above; format: cell-based, human; settings: for IC50: Homo sapiens, SK-BR-3, 5-FU, doses ranged from 5-300 μg/ml
Procedure: as §1

MCF-7 cells [3] = experiment: as above; format: cell-based; settings: Homo sapiens, 72 hours post treatment
SKBR-3 cells [4] = experiment: as above; format: cell-based; settings: Homo sapiens, SK-BR-3, 72 hours post treatment
MDA-MB231 cells = settings: MDA-MB 231 cells

For `O=c1[nH]cc(F)c(=O)[nH]1` [5 Fluorouracil, 5-fluorouracil], the “biological response to drug treatment (in words)” value (“biological response” below) (HCC 38 cells; HCC 38 cells) was “responded only to higher doses”, the IC50 (HCC 38 cells; HCC38, 5-FU, HCC 38 cells, doses ranged from 5-300 μg/ml, read-out: IC50-1 FU) was 216 µg/mL (≈ 1660 µM) and the “biological response” value (HCC 2218 cells; HCC 2218 cells) was “responded only to higher doses”. The IC50 (HCC 2218 cells; HCC2218, 5-FU, HCC 2218 cells, doses ranged from 5-300 μg/ml, read-out: IC50-1 FU) was 246 µg/mL (≈ 1890 µM), the “biological response” value (HCC 202 cells; HCC 202 cells) was “responded only to higher doses” and the IC50 (HCC 202 cells; HCC202, 5-FU, HCC 202 cells, doses ranged from 5-300 μg/ml, read-out: IC50-1 FU) was 181 µg/mL (≈ 1390 µM). The IC50 (HCC 202 cells; HCC202, 5-FU, HCC 202 cells, doses ranged from 5-300 μg/ml, read-out: IC50-2 FU) was 162 µg/mL (≈ 1250 µM), the “biological response” value (T47D cells) was “responding to lower doses” and the IC50 (T47D cells; 5-FU, doses ranged from 5-300 μg/ml, read-out: IC50-1 FU) was 8.64 µg/mL (≈ 66.4 µM). The IC50 (T47D cells; 5-FU, doses ranged from 5-300 μg/ml, read-out: IC50-2 FU) was 6.72 µg/mL (≈ 51.7 µM), the “biological response” value (MCF-7 cells [1]) was “responding to lower doses” and the IC50 (MCF-7 cells [1]; read-out: IC50-1 FU) was 10 µg/mL (≈ 76.9 µM). The IC50 (MCF-7 cells [1]; read-out: IC50-2 FU) was 15.2 µg/mL (≈ 117 µM), the “biological response” value (SKBR-3 cells [2]) was “responding to lower doses” and the IC50 (SKBR-3 cells [2]; read-out: IC50-1 FU) was 23.3 µg/mL (≈ 179 µM). The IC50 (SKBR-3 cells [2]; read-out: IC50-2 FU) was 33.7 µg/mL (≈ 259 µM).

`CC(=O)O[C@@]12CO[C@@H]1C[C@H](O)[C@@]1(C)C(=O)[C@H](O)C3=C(C)[C@@H](OC(=O)[C@H](O)[C@@H](NC(=O)OC(C)(C)C)c4ccccc4)C[C@@](O)([C@@H](OC(=O)c4ccccc4)[C@H]21)C3(C)C` [Docetaxel, docetaxel] was tested, and the IC50 (MCF-7 cells [3]; MCF7, Docetaxel, read-out: IC50-1) was 1 µg/mL (≈ 1.24 µM), the IC50 (MCF-7 cells [3]; MCF7, Docetaxel, read-out: IC50-2) was 0.8 µg/mL (≈ 0.99 µM) and the IC50 (SKBR-3 cells [4]; Docetaxel, SKBR3 cells, read-out: IC50-1) was 6.6 µg/mL (≈ 8.17 µM). For the same compound, the IC50 (SKBR-3 cells [4]; Docetaxel, SKBR3 cells, read-out: IC50-2) was 12.5 µg/mL (≈ 15.5 µM), the “biological response” value (HCC 38 cells; HCC 38 cells) was “response only to higher doses” and the IC50 (HCC 38 cells; Docetaxel, HCC38 cells, 72 hours post treatment, read-out: IC50-1) was 58 µg/mL (≈ 71.8 µM). The IC50 (HCC 38 cells; Docetaxel, HCC38 cells, 72 hours post treatment, read-out: IC50-2) was 59.9 µg/mL (≈ 74.1 µM), the “biological response” value (HCC 2218 cells; HCC 2218 cells) was “response only to higher doses” and the IC50 (HCC 2218 cells; HCC2218, Docetaxel, HCC 2218 cells, 72 hours post treatment, read-out: IC50-1) was 25 µg/mL (≈ 30.9 µM). The IC50 (HCC 2218 cells; HCC2218, Docetaxel, HCC 2218 cells, 72 hours post treatment, read-out: IC50-2) was 18 µg/mL (≈ 22.3 µM), the “biological response” value (HCC 202 cells; HCC 202 cells) was “resistant” and the IC50 (HCC 202 cells; Docetaxel, HCC202 cells, 72 hours post treatment, read-out: IC50-1) was 25.5 µg/mL (≈ 31.6 µM). For the same compound, the IC50 (HCC 202 cells; Docetaxel, HCC202 cells, 72 hours post treatment, read-out: IC50-2) was 22 µg/mL (≈ 27.2 µM), the “biological response” value (T47D cells) was “sensitive” and the IC50 (T47D cells; Docetaxel, 72 hours post treatment, read-out: IC50-1) was 5.5 µg/mL (≈ 6.81 µM). The IC50 (T47D cells; Docetaxel, 72 hours post treatment, read-out: IC50-2) was 4.5 µg/mL (≈ 5.57 µM), the “biological response” value (MCF-7 cells [1]) was “sensitive” and the “biological response” value (SKBR-3 cells [2]) was “sensitive”.

In the case of `CC(=O)O[C@H]1C(=O)[C@@]2(C)[C@H]([C@H](OC(=O)c3ccccc3)[C@]3(O)C[C@H](OC(=O)[C@H](O)[C@@H](NC(=O)c4ccccc4)c4ccccc4)C(C)=C1C3(C)C)[C@]1(OC(C)=O)CO[C@@H]1C[C@@H]2O` [Paclitaxel, paclitaxel], the IC50 (MCF-7 cells [3]; MCF7, Paclitaxel, read-out: IC50-1) is reported as 6 µg/mL (≈ 7.03 µM), the IC50 (MCF-7 cells [3]; MCF7, Paclitaxel, read-out: IC50-2) is reported as 7.1 µg/mL (≈ 8.31 µM) and the IC50 (SKBR-3 cells [4]; Paclitaxel, SKBR-3 cells, read-out: IC50-1) is reported as 10 µg/mL (≈ 11.7 µM). For the same compound, the IC50 (SKBR-3 cells [4]; Paclitaxel, SKBR-3 cells, read-out: IC50-2) was 8.5 µg/mL (≈ 9.95 µM), the “biological response” value (HCC 38 cells; HCC 38 cells) was “displayed a response to PTX, but did not express an IC50 value” and the IC50 (HCC 38 cells; HCC38, Paclitaxel, HCC 38 cells, 72 hours post treatment, read-out: IC50-1) was greater than 50 µg/mL. The IC50 (HCC 38 cells; HCC38, Paclitaxel, HCC 38 cells, 72 hours post treatment, read-out: IC50-2) was greater than 50 µg/mL, the “biological response” value (HCC 2218 cells; HCC 2218 cells) was “displayed a response to PTX, but did not express an IC50 value” and the IC50 (HCC 2218 cells; Paclitaxel, HCC2218 cells, 72 hours post treatment, read-out: IC50-1) was greater than 50 µg/mL. The IC50 (HCC 2218 cells; Paclitaxel, HCC2218 cells, 72 hours post treatment, read-out: IC50-2) was greater than 50 µg/mL, the “biological response” value (HCC 202 cells; HCC 202 cells) was “resistant” and the IC50 (HCC 202 cells; HCC202, Paclitaxel, HCC 202 cells, 72 hours post treatment, read-out: IC50-1) was greater than 50 µg/mL. For the same compound, the IC50 (HCC 202 cells; HCC202, Paclitaxel, HCC 202 cells, 72 hours post treatment, read-out: IC50-2) was greater than 50 µg/mL, the “biological response” value (T47D cells) was “sensitive” and the IC50 (T47D cells; Paclitaxel, 72 hours post treatment, read-out: IC50-1) was 3 µg/mL (≈ 3.51 µM). For the same compound, the IC50 (T47D cells; Paclitaxel, 72 hours post treatment, read-out: IC50-2) was 3.6 µg/mL (≈ 4.22 µM), the “biological response” value (MCF-7 cells [1]) was “sensitive” and the “biological response” value (SKBR-3 cells [2]) was “sensitive”.

`CC/C(=C(\c1ccccc1)c1ccc(OCCN(C)C)cc1)c1ccccc1` [Tamoxifen, tamoxifen] was tested, and the “biological response” value (MDA-MB231 cells) was “much less sensitive response”, the “biological response” value (MCF-7 cells [1]) was “high sensitivity” and the “biological response” value (SKBR-3 cells [2]) was “much less sensitive response”.
